Drawing on article PMC6614837 (Nucleic Acids Research, 2019), this text covers IC50 and Kd for two molecules.

One may read the IC50 as the point on the concentration scale where inhibition reaches its midpoint. Broadly, the Kd is the constant that tells how readily two partners part at equilibrium.

Series [1] has as its target Bacillus subtilis RNase P. Set-up: method as in PMID 25249623. The note with it: fluorescent pre-tRNA substrate ref 26; read-out: Reported IC50; cited from earlier work.
Series [2] addresses T1, RNase P holoenzyme from Thermotoga maritima (Thermotoga maritima, UniProt Q9X1H4).
T1 construct: made in house
T1 sequence (Q9X1H4 1-117): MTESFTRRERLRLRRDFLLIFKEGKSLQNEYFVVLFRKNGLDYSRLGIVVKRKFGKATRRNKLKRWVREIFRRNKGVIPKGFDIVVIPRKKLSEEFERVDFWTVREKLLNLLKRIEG
The series can be described thus: Real-time fluorescence-based (FRET) RNase P activity assay with minihelix (Mh) substrate. The class given is biochemical. The note with it: fluorescent Mh substrate 270 nM, holoenzyme 33 nM, 10% DMSO, 37°C, 400 mM AmOAc, 100 mM MgCl2. Summed up: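 Reconstituted holoenzyme (P RNA:P protein 1:1.1) at 33 nM with 270 nM minihelix labelled Alexa Fluor 488/BHQ quencher, in buffer H (pH 7.4, 400 mM AmOAc, 100 mM MgCl2), 10% DMSO, 37°C. Cleavage followed as fluorescence increase (ex 485, em 535 nm); initial velocities from linear slopes.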

Series [3] deals with T2, RNase P protein (TmP, P protein) (Thermotoga maritima, UniProt Q9X1H4 1-117).
T2 sequence: T1 sequence (Q9X1H4 1-117)
Description: BLI; 10 mM Mg2+, 5% DMSO; BLI (Octet RED96): 20 mM HEPES pH 7.4, 100 mM ammonium acetate, 10 mM MgCl2, 2.5-5% DMSO, 30 C; P protein:P RNA in 33 mM Tris, 66.6 mM HEPES, 200 mM ammonium acetate, 10 mM MgCl2, pH 7.4. The note with it: protein: recombinant; tags: N-terminal His6 (GST fusion cleaved with TEV); single strand. (In general: BLI is a label-free optical method that tracks binding on a fibre tip over time.)

Regarding `CC(=O)Oc1cc(-c2coc3cc(OC(C)=O)c(OC(C)=O)c(OC(C)=O)c3c2=O)cc(OC(C)=O)c1OC(C)=O` [iriginol hexaacetate, reference compound], the IC50 in series [1] is 800 nM; in series [2], 29500 nM.
GGAAAAAGAU (ssRNA) [5' RNA leader (10 nt)]: in series [3], the Kd worked out at 35.6 nM.
